Laboratory results taken from paper PMC10786919, “Design-rules for stapled peptides with in vivo activity and their application to Mdm2/X antagonists” (Nature Communications, 2024).
Converted amounts (≈) assume the structure as drawn. Like-named read-outs stand apart in the source and are kept apart here. Positions of bridges follow the written chain, without caps; N, C: chain ends. Non-standard residues stand in square brackets, D forms with d. Residues, ends and D or L forms follow the SMILES beside them. Lys(N3) = [N-]=[N+]=NCCCC[C@H](N)C(=O)O; R8 = C=CCCCCCC[C@@](C)(N)C(=O)O; Cba = N[C@@H](CC1CCC1)C(=O)O; S5 = C=CCCC[C@](C)(N)C(=O)O; βAla = NCCC(=O)O

Experiments:
[1] = Lactate dehydrogenase (LDH) release assay; assay type: cell-based
Summary of the method: (§1)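 Read-out was lactate dehydrogenase release, reflecting loss of membrane integrity, in reporter-engineered HCT116 cells (p53-responsive β-lactamase) seeded at 8000 cells per well. Final DMSO was 0.5%, and reported values are geometric means from three or more biological repeats.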

[2] = Solubility assay (kinetic solubility, PBS pH 7); assay type: physicochemical; conditions: for solubility kinetic: read-out: Solubility
Summary of the method: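 Values derive from peak-area ratios of sample versus a 100 µM standard, scaled by that standard's concentration.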

[3] = Experimental LogD (partition coefficient); conditions: not stated, Partition Coeff LogD
in vitro = assay: in vitro
Summary of the method: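 Azido-peptide permeability was read as loss of NanoBRET signal (donor 450 nm, acceptor 610 nm) after adding NanoBret618-azide at 10 μM final.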

HCT116 cells = assay: Lactate dehydrogenase (LDH) release assay; assay type: cell-based
Summary of the method: as §1

[4] = pH 7, aqueous buffer, kinetic from dmso stock, pH 7, PBS
[5] = Nanoclick permeability assay EC50
[6] = 0% FBS 4Hr, read-out: LDH: Cytotoxicity assay EC50
[7] = 10% FBS 4Hr, read-out: LDH: Cytotoxicity assay EC50

## CSCC[C@H](NC(=O)[C@H](CO)NC(=O)[C@]1(C)CCCC=CCCCCCC[C@@](C)(NC(=O)[C@H](Cc2ccccc2)NC(=O)[C@H](Cc2ccc(O)cc2)NC(=O)[C@H](CC(C)C)NC(=O)CCNC(=O)[C@H](CCCCN=[N+]=[N-])NC(C)=O)C(=O)N[C@@H](CCC(=O)O)C(=O)N[C@@H](Cc2ccc(O)cc2)C(=O)N[C@@H](Cc2c[nH]c3ccccc23)C(=O)N[C@@H](C)C(=O)N[C@@H](CCC(N)=O)C(=O)N[C@@H](CC2CCC2)C(=O)N1)C(=O)N[C@@H](CC(C)C)C(N)=O [MP-543] (Ac-[Lys(N3)][βAla]LYF[R8]EYWAQ[Cba][S5]SML-NH2; staple 6-13)
[1]; LDH: Cytotoxicity assay EC50
  EC50: > 50.6 µM
[2]; [4]
  solubility kinetic: 30.5 µM (≈ 65.1 µg/mL)
[3]
  logD: 3.56
In vitro; [5]
  cell entry EC50: 0.139 µM
physchem
  EPSA: 234 A^2

## CC(=O)N[C@@H](CCCCN=[N+]=[N-])C(=O)NCCC(=O)N[C@@H](CCCNC(=N)N)C(=O)N[C@H](C(=O)N[C@@H](Cc1ccccc1)C(=O)N[C@]1(C)CCCCCCC=CCCC[C@@](C)(C(=O)N[C@@H](CO)C(=O)N[C@@H](C)C(=O)N[C@@H](CC(C)C)C(N)=O)NC(=O)[C@H](CC2CCC2)NC(=O)[C@H](CCC(N)=O)NC(=O)[C@H](CC(C)C)NC(=O)[C@H](Cc2c[nH]c3ccccc23)NC(=O)[C@H](Cc2ccc(O)cc2)NC(=O)[C@H](CCC(=O)O)NC1=O)[C@@H](C)O [MP-541] (Ac-[Lys(N3)][βAla]RTF[R8]EYWLQ[Cba][S5]SAL-NH2; staple 6-13)
[1]; LDH: Cytotoxicity assay EC50
  EC50: > 50.6 µM
[2]; [4]
  solubility kinetic: 4 µM (≈ 8.39 µg/mL)
[3]
  logD: 3.58
In vitro; [5]
  cell entry EC50: 0.21 µM
physchem
  EPSA: 224 A^2

## CC(=O)N[C@@H](CCCCN=[N+]=[N-])C(=O)NCCC(=O)N[C@@H](CC(C)C)C(=O)N[C@H](C(=O)N[C@@H](Cc1ccccc1)C(=O)N[C@]1(C)CCCCCCC=CCCC[C@@](C)(C(=O)N[C@@H](C)C(=O)N[C@@H](C)C(=O)N[C@@H](C)C(N)=O)NC(=O)[C@H](CC2CCC2)NC(=O)[C@H](CCC(N)=O)NC(=O)[C@H](C)NC(=O)[C@H](Cc2c[nH]c3ccccc23)NC(=O)[C@H](Cc2ccc(O)cc2)NC(=O)[C@H](CCC(=O)O)NC1=O)[C@@H](C)O [MP-8956, AZIDE-ATSP-7041 (S12A)] (Ac-[Lys(N3)][βAla]LTF[R8]EYWAQ[Cba][S5]AAA-NH2; staple 6-13)
[1]; [6]
  EC50: > 50 µM
[1]; [7]
  EC50: > 50 µM
HCT116 cells; 0% FBS 4Hr
  LDH: Cytotoxicity assay % Effect: 18.05%
HCT116 cells; 10% FBS 4Hr
  LDH: Cytotoxicity assay % Effect: 3.25%
[2]; [4]
  solubility kinetic: 108 µM (≈ 211 µg/mL)
[2]
  solubility kinetic: 108 µM (≈ 211 µg/mL)
In vitro
  cell entry EC50: 0.411 µM
physchem
  EPSA: 217 A^2

## CC(=O)N[C@@H](CC(C)C)C(=O)N[C@@H](Cc1c[nH]cn1)C(=O)N[C@@H](Cc1ccccc1)C(=O)N[C@]1(C)CCCCCCC=CCCC[C@@](C)(C(=O)N[C@@H](CO)C(=O)N[C@@H](C)C(=O)N[C@@H](C)C(N)=O)NC(=O)[C@H](CC2CCC2)NC(=O)[C@H](CC(C)C)NC(=O)[C@H](CCC(N)=O)NC(=O)[C@H](Cc2c[nH]c3ccccc23)NC(=O)[C@H](Cc2ccc(O)cc2)NC(=O)[C@H](CCC(=O)O)NC1=O [MP-198, ATSP-7041 (T2H)] (Ac-LHF[R8]EYWQL[Cba][S5]SAA-NH2; staple 4-11)
[1]; [6]
  EC50: > 50 µM
HCT116 cells; 0% FBS 4Hr
  LDH: Cytotoxicity assay % Effect: 2.825%
HCT116 cells; 0% FBS 16Hr
  LDH: Cytotoxicity assay % Effect: -3.86%
[2]; [4]
  solubility kinetic: 25 µM (≈ 45.6 µg/mL)
[3]
  logD: 2.81
physchem
  EPSA: 209 A^2

## CC(=O)N[C@@H](CCCCN=[N+]=[N-])C(=O)NCCC(=O)N[C@@H](CC(C)C)C(=O)N[C@H](C(=O)N[C@@H](Cc1ccccc1)C(=O)N[C@]1(C)CCCCCCC=CCCC[C@@](C)(C(=O)N[C@@H](CO)C(=O)N[C@@H](C)C(=O)N[C@@H](C)C(N)=O)NC(=O)[C@H](CC2CCC2)NC(=O)[C@H](C)NC(=O)[C@H](C)NC(=O)[C@H](Cc2c[nH]c3ccccc23)NC(=O)[C@H](Cc2ccc(O)cc2)NC(=O)[C@H](C)NC1=O)[C@@H](C)O [MP-964, AZIDE-ATSP-7041 (E5A,Q9A)] (Ac-[Lys(N3)][βAla]LTF[R8]AYWAA[Cba][S5]SAA-NH2; staple 6-13)
[1]; [6]
  EC50: > 50 µM
[1]; [7]
  EC50: > 50 µM
HCT116 cells; 0% FBS 4Hr
  LDH: Cytotoxicity assay % Effect: 6.293%
HCT116 cells; 0% FBS 16Hr
  LDH: Cytotoxicity assay % Effect: 4.09%
HCT116 cells; 10% FBS 4Hr
  LDH: Cytotoxicity assay % Effect: 2.881%
[2]
  Solubility: P.B.
[2]; pH 7, PBS
  Solubility: Poorly Behaved
[3]
  logD: 3.77
physchem
  EPSA: 204 A^2

## CC(=O)N[C@@H](CC(C)C)C(=O)N[C@H](C(=O)N[C@@H](Cc1ccccc1)C(=O)N[C@]1(C)CCCCCCC=CCCC[C@@](C)(C(=O)N[C@@H](CO)C(=O)N[C@@H](C)C(=O)N[C@@H](C)C(N)=O)NC(=O)[C@H](CC2CCC2)NC(=O)[C@H](CC(C)C)NC(=O)[C@H](CCC(N)=O)NC(=O)[C@H](Cc2c[nH]c3ccccc23)NC(=O)[C@H](Cc2ccc(O)cc2)NC(=O)[C@H](Cc2c[nH]cn2)NC1=O)[C@@H](C)O [MP-199, ATSP-7041 (E5H)] (Ac-LTF[R8]HYWQL[Cba][S5]SAA-NH2; staple 4-11)
[1]; [6]
  EC50: > 50 µM
HCT116 cells; 0% FBS 4Hr
  LDH: Cytotoxicity assay % Effect: 4.035%
HCT116 cells; 0% FBS 16Hr
  LDH: Cytotoxicity assay % Effect: 24.3%
[2]; [4]
  solubility kinetic: 5 µM (≈ 8.98 µg/mL)
[3]
  logD: 3.25
physchem
  EPSA: 201 A^2

## CC(=O)N[C@@H](CCCCN=[N+]=[N-])C(=O)NCCC(=O)N[C@@H](CC(C)C)C(=O)N[C@H](C(=O)N[C@@H](Cc1ccccc1)C(=O)N[C@]1(C)CCCCCCC=CCCC[C@@](C)(C(=O)NC(C)(C)C(=O)N[C@@H](C)C(=O)N[C@@H](C)C(N)=O)NC(=O)[C@H](CC2CCC2)NC(=O)[C@H](CCC(N)=O)NC(=O)[C@H](C)NC(=O)[C@H](Cc2c[nH]c3ccccc23)NC(=O)[C@H](Cc2ccc(O)cc2)NC(=O)[C@H](CCC(=O)O)NC1=O)[C@@H](C)O [MP-172]
[2]; [4]
  solubility kinetic: 140 µM (≈ 276 µg/mL)
[3]
  logD: 3.17
In vitro; [5]
  cell entry EC50: 0.123 µM
physchem
  EPSA: 225 A^2

## CC(=O)N[C@@H](CC(C)C)C(=O)N[C@H](C(=O)N[C@@H](Cc1ccccc1)C(=O)N[C@]1(C)CCCCCCC=CCCC[C@@](C)(C(=O)N[C@@H](CO)C(=O)N[C@@H](C)C(=O)N[C@@H](C)C(N)=O)NC(=O)[C@H](CC2CCC2)NC(=O)[C@H](CC(C)C)NC(=O)[C@H](CCC(N)=O)NC(=O)[C@H](Cc2c[nH]c3ccccc23)NC(=O)[C@H](Cc2ccc(O)cc2)NC(=O)[C@H](CCCNC(=N)N)NC1=O)[C@@H](C)O [MP-193] (Ac-LTF[R8]RYWQL[Cba][S5]SAA-NH2; staple 4-11)
[1]; LDH: Cytotoxicity assay EC50
  EC50: > 50 µM
HCT116 cells
  LDH: Cytotoxicity assay % Effect: 58.33%
[2]; [4]
  solubility kinetic: 2 µM (≈ 3.63 µg/mL)
[3]
  logD: 3.26
physchem
  EPSA: 207 A^2

## CC(=O)N[C@@H](CC(C)C)C(=O)N[C@H](C(=O)N[C@@H](Cc1ccccc1)C(=O)N[C@]1(C)CCCCCCC=CCCC[C@@](C)(C(=O)N[C@@H](CO)C(=O)N[C@@H](C)C(=O)N[C@@H](C)C(N)=O)NC(=O)[C@H](CC2CCC2)NC(=O)[C@H](CC(C)C)NC(=O)[C@H](CCCNC(=N)N)NC(=O)[C@H](Cc2c[nH]c3ccccc23)NC(=O)[C@H](Cc2ccc(O)cc2)NC(=O)[C@H](CCC(=O)O)NC1=O)[C@@H](C)O [MP-194] (Ac-LTF[R8]EYWRL[Cba][S5]SAA-NH2; staple 4-11)
[1]; LDH: Cytotoxicity assay EC50
  EC50: > 50 µM
HCT116 cells
  LDH: Cytotoxicity assay % Effect: -1.06%
[2]; pH 7, PBS
  Solubility: Poorly Behaved
[3]
  logD: 2.87
physchem
  EPSA: 210 A^2

## CC(=O)N[C@@H](CC(C)C)C(=O)N[C@H](C(=O)N[C@@H](Cc1ccccc1)C(=O)N[C@]1(C)CCCCCCC=CCCC[C@@](C)(C(=O)N[C@@H](Cc2c[nH]cn2)C(=O)N[C@@H](C)C(=O)N[C@@H](C)C(N)=O)NC(=O)[C@H](CC2CCC2)NC(=O)[C@H](CC(C)C)NC(=O)[C@H](CCC(N)=O)NC(=O)[C@H](Cc2c[nH]c3ccccc23)NC(=O)[C@H](Cc2ccc(O)cc2)NC(=O)[C@H](CCC(=O)O)NC1=O)[C@@H](C)O [MP-201, ATSP-7041 (S12H)] (Ac-LTF[R8]EYWQL[Cba][S5]HAA-NH2; staple 4-11)
[1]; [6]
  EC50: > 50 µM
HCT116 cells; 0% FBS 4Hr
  LDH: Cytotoxicity assay % Effect: 10.92%
HCT116 cells; 0% FBS 16Hr
  LDH: Cytotoxicity assay % Effect: 6.91%
[2]; [4]
  solubility kinetic: 5 µM (≈ 9.19 µg/mL)
[3]
  logD: 2.64
physchem
  EPSA: 218 A^2

## CC(=O)N[C@@H](Cc1ccccc1)C(=O)N[C@]1(C)CCCCCCC=CCCC[C@@](C)(C(=O)N[C@@H](CO)C(=O)N[C@@H](C)C(=O)N[C@@H](C)C(N)=O)NC(=O)[C@H](CC2CCC2)NC(=O)[C@H](CC(C)C)NC(=O)[C@H](CCC(N)=O)NC(=O)[C@H](Cc2c[nH]c3ccccc23)NC(=O)[C@H](Cc2ccc(O)cc2)NC(=O)[C@H](CCC(=O)O)NC1=O [MP-1202] (Ac-F[R8]EYWQL[Cba][S5]SAA-NH2; staple 2-9)
[1]; LDH: Cytotoxicity assay EC50
  EC50: > 50 µM
[2]; [4]
  solubility kinetic: 15 µM (≈ 23.6 µg/mL)
[3]
  logD: 2.59
physchem
  EPSA: 214 A^2

## CC(=O)N[C@@H](CCCCN=[N+]=[N-])C(=O)NCCC(=O)NC(C)(C)C(=O)N[C@H](C(=O)N[C@@H](Cc1ccccc1)C(=O)N[C@]1(C)CCCCCCC=CCCC[C@@](C)(C(=O)N[C@@H](CO)C(=O)N[C@@H](C)C(=O)N[C@@H](C)C(N)=O)NC(=O)[C@H](CC2CCC2)NC(=O)[C@H](CCC(N)=O)NC(=O)[C@H](C)NC(=O)[C@H](Cc2c[nH]c3ccccc23)NC(=O)[C@H](Cc2ccc(O)cc2)NC(=O)[C@H](CCC(=O)O)NC1=O)[C@@H](C)O [MP-168]
[1]; [6]
  EC50: > 50 µM
HCT116 cells; 0% FBS 4Hr
  LDH: Cytotoxicity assay % Effect: 4.017%
HCT116 cells; 0% FBS 16Hr
  LDH: Cytotoxicity assay % Effect: 11.59%
[2]; [4]
  solubility kinetic: 79.5 µM (≈ 154 µg/mL)
[3]
  logD: 2.81
physchem
  EPSA: 228 A^2
